The conditions of this data set: rabbit, 40 mg/ml in water with no buffer, 2 mA-4 min. From the text:
The assignee made some comparative tests on rabbits done with a first iontophoresis device having cylindrical outer and inner walls (as known in the prior art) and a second iontophoresis device as shown in FIG. 7 (i.e. the inner wall 26 and outer wall 24 being tapered with the same inclination angle).
The two devices were designed for having the same: • application surface 2; • distance between the active electrode 10 and the application surface 2.
The area of the active electrode 30 of the second device was about three times more important than those of the first device.
For each comparative test, iontophoresis conditions were the same (2 mA-4 min).
After iontophoresis, rabbit ocular tissues were sampled. Tissues sampled included choroids and retina.
Concentrations of active substances 30 in these ocular tissues were then measured.

Take `C[C@@H]1C[C@H]2[C@@H]3CCC4=CC(=O)C=C[C@]4(C)[C@@]3(F)[C@@H](O)C[C@]2(C)[C@@]1(O)C(=O)COP(=O)([O-])[O-].[Na+].[Na+]` [Dexamethasone Disodium Phosphate]: the “Increase of tissue concentration, second device versus first device, choroids” value came to 3.7. Moreover, for the setting “choroids and retina”, the “Times more active substance in the tissues with second (tapered) device than with first (cylindrical) device” value is recorded as “At least three”.

Source of the values: patent publication US9238131B2, “Ocular iontophoresis device” (priority 2005, dated 2016).
